Data from patent publication US7994140B2, “Classes of compounds that interact with GPCRs” (Alchemia Limited, priority 2002, dated 2011).

target: T1, MC4 (Homo sapiens, UniProt P32245); assay: GPCR radioligand binding (RLB) assay, melanocortin MC4, [125I]NDP-αMSH; details: 4.0 Micromolar; Example Library 10
T1 construct: purchased Perkin Elmer BioSignal; host or cells: HEK 293
Protocol: Recombinant human receptors expressed in HEK 293 cells were used for all experiments. Receptor membrane preparations were purchased from Perkin Elmer BioSignal. The labelled ligand used in somatostatin GPCR RLB assays was [^125I]SST-14 and in melanocortin assays was [^125I]NDP-αMSH. All assays were done in a 96-well plate format using either glass fiber filter mats or filter plates. All reagents purchased were of the highest quality.
Specific assay buffer, incubation and washing conditions were optimized for each receptor however they all followed the same general format. The procedures for both filter mat and filter plate formats are based on the receptor manufacturers recommendations or those described extensively in the literature. The procedures are briefly outlined below.
In assays where filter mats are used we incubate receptor membranes, assay buffer and [^125I] labelled ligand in 96 well microplates. Add compounds to incubation mixture and continue incubation for optimized period. Presoak Filter mat GF/B in 0.5% PEI for ˜2 hr at 4° C. On completion of assay mixture incubation add additional 100 μL/well of assay buffer immediately prior to filtration. Filter the assay mixture onto the GF/B filter mat using a cell harvester. Dry the filter mats prior to sealing them into a scintillation counting bag with scintillant. Radioactivity in each well is detected by liquid scintillation counting.
In assays where filter plates are used Multiscreen glass fiber filter plates (Millipore, Cat No MAFCNOB10) are precoated with 0.5% PEI for ˜2 hr at 4° C. All wells are then washed with 200 µl/well assay buffer and filtered using the Multiscreen Separation System. Subsequently receptor membranes, assay buffer and labelled ligands are added to the wells and equilibrated. Compounds for testing are then added to the mixture and incubation is continued for an optimized time. Plates are then put into the Multiscreen Separation System and the assay mixture is filtered through the plate under vacuum. Each well is then washed several times with assay buffer. Plates are then dried prior to putting sealing tape onto the bottom of the plate. Scintillant is added to each well and radioactivity measured by liquid scintillation counting.
Raw data was analysed according to standard methods using either GraphPad Prism software or IDDBS ActivityBase software.

T1 sequence (P32245 whole entry): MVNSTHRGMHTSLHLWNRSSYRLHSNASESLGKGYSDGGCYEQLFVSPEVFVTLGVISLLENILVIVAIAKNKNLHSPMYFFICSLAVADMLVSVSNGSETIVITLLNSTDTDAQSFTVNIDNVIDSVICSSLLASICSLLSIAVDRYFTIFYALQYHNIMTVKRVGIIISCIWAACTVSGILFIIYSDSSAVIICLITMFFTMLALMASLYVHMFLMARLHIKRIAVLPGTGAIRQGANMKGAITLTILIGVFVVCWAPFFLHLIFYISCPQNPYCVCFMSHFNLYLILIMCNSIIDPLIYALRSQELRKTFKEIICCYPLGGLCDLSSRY

How did the “MC4 Inhibition at 4.0 Micromolar” value turn out when `NCCC(=O)N[C@H]1C(OCc2ccc3ccccc3c2)O[C@H](COCc2ccccc2)[C@@H](O)[C@@H]1OCc1ccccc1` (single isomer, unassigned) [Compound 362] was run?
Its value is “+ (Indicates inhibition greater than . . . 50%)”.

With `NCCC(=O)N[C@H]1C(OCc2ccc3ccccc3c2)O[C@H](COCc2ccccc2)[C@@H](O)[C@@H]1OCc1ccccc1` (single isomer, unassigned) [Compound 363] as the molecule, how does the “MC4 Inhibition at 4.0 Micromolar” value read?
Its value is “+ (Indicates inhibition greater than . . . 50%)”.

`NCCCC(=O)N[C@H]1C(OCc2ccc3ccccc3c2)O[C@H](COCc2ccc3ccccc3c2)[C@@H](O)[C@@H]1OCc1ccc(Cl)cc1` (single isomer, unassigned) [Compound 365] was tested. Which “MC4 Inhibition at 4.0 Micromolar” value did it give?
The value was “+ (Indicates inhibition greater than . . . 50%)”.

With `NCCCC(=O)N[C@H]1C(OCc2ccc3ccccc3c2)O[C@H](COCc2ccc3ccccc3c2)[C@@H](O)[C@@H]1OCc1ccc(Cl)cc1` (single isomer, unassigned) [Compound 366] as the molecule, how does the “MC4 Inhibition at 4.0 Micromolar” value read?
The value was “+ (Indicates inhibition greater than . . . 50%)”.

Which “MC4 Inhibition at 4.0 Micromolar” value does the source give for `NCCCC(=O)N[C@H]1C(OCc2ccc3ccccc3c2)O[C@H](COCc2ccc(Cl)cc2)[C@@H](O)[C@@H]1OCc1ccc(Cl)cc1` (single isomer, unassigned) [Compound 367] here?
Its value is “+ (Indicates inhibition greater than . . . 50%)”.

Which “MC4 Inhibition at 4.0 Micromolar” value does the source give for `NCCCC(=O)N[C@H]1C(OCc2ccc3ccccc3c2)O[C@H](COCc2ccc(Cl)cc2)[C@@H](O)[C@@H]1OCc1ccc(Cl)cc1` (single isomer, unassigned) [Compound 368] here?
The value was “+ (Indicates inhibition greater than . . . 50%)”.

For `NCCCC(=O)N[C@H]1C(OCc2ccc3ccccc3c2)O[C@H](COCc2ccc(Cl)cc2)[C@@H](O)[C@@H]1OCc1ccc2ccccc2c1` (single isomer, unassigned) [Compound 370], which “MC4 Inhibition at 4.0 Micromolar” value is on record?
The value was “+ (Indicates inhibition greater than . . . 50%)”.

`NCCCC(=O)N[C@H]1C(OCc2ccc3ccccc3c2)O[C@H](COCc2ccc(Cl)cc2)[C@@H](O)[C@@H]1OCc1ccc2ccccc2c1` (single isomer, unassigned) [Compound 371] was tested. Which “MC4 Inhibition at 4.0 Micromolar” value did it give?
The value was “+ (Indicates inhibition greater than . . . 50%)”.

How did the “MC4 Inhibition at 4.0 Micromolar” value turn out when `NCCCC(=O)N[C@H]1C(OCc2ccc3ccccc3c2)O[C@H](COCc2ccc3ccccc3c2)[C@@H](O)[C@@H]1OCc1ccccc1` (single isomer, unassigned) [Compound 372] was run?
Its value is “+ (Indicates inhibition greater than . . . 50%)”.

How did the “MC4 Inhibition at 4.0 Micromolar” value turn out when `NCCCC(=O)N[C@H]1C(OCc2ccc3ccccc3c2)O[C@H](COCc2ccc3ccccc3c2)[C@@H](O)[C@@H]1OCc1ccccc1` (single isomer, unassigned) [Compound 373] was run?
Its value is “+ (Indicates inhibition greater than . . . 50%)”.

With `NCCCC(=O)N[C@H]1C(OCc2ccc(Cl)cc2)O[C@H](COCc2ccc3ccccc3c2)[C@@H](O)[C@@H]1OCc1ccc2ccccc2c1` (single isomer, unassigned) [Compound 389] as the molecule, how does the “MC4 Inhibition at 4.0 Micromolar” value read?
Its value is “+ (Indicates inhibition greater than . . . 50%)”.

With `NCCCC(=O)N[C@H]1C(OCc2ccc(Cl)cc2)O[C@H](COCc2ccc3ccccc3c2)[C@@H](O)[C@@H]1OCc1ccc2ccccc2c1` (single isomer, unassigned) [Compound 390] as the molecule, how does the “MC4 Inhibition at 4.0 Micromolar” value read?
The value was “+ (Indicates inhibition greater than . . . 50%)”.

How did the “MC4 Inhibition at 4.0 Micromolar” value turn out when `NCCCC(=O)N[C@H]1C(OCc2ccc(Cl)cc2)O[C@H](COCc2ccccc2)[C@@H](O)[C@@H]1OCc1ccc2ccccc2c1` (single isomer, unassigned) [Compound 391] was run?
Its value is “+ (Indicates inhibition greater than . . . 50%)”.

How did the “MC4 Inhibition at 4.0 Micromolar” value turn out when `NCCCC(=O)N[C@H]1C(OCc2ccc(Cl)cc2)O[C@H](COCc2ccccc2)[C@@H](O)[C@@H]1OCc1ccc2ccccc2c1` (single isomer, unassigned) [Compound 392] was run?
The value was “+ (Indicates inhibition greater than . . . 50%)”.

Which “MC4 Inhibition at 4.0 Micromolar” value does the source give for `NCCCC(=O)N[C@H]1C(OCc2ccc(Cl)cc2)O[C@H](COCc2ccc(Cl)cc2)[C@@H](O)[C@@H]1OCc1ccc2ccccc2c1` (single isomer, unassigned) [Compound 393] here?
Its value is “+ (Indicates inhibition greater than . . . 50%)”.

How did the “MC4 Inhibition at 4.0 Micromolar” value turn out when `NCCCC(=O)N[C@H]1C(OCc2ccc(Cl)cc2)O[C@H](COCc2ccc(Cl)cc2)[C@@H](O)[C@@H]1OCc1ccc2ccccc2c1` (single isomer, unassigned) [Compound 394] was run?
The value was “+ (Indicates inhibition greater than . . . 50%)”.

same assay, conditions: 10 micromolar compound; recombinant human receptor membranes (HEK 293)

How did the “MC4 inhibition at 10 micromolar” value turn out when `COC[C@H]1OC(OCc2ccccc2)[C@H](NC(=O)CNC(=N)N)[C@@H](OCc2ccc(-c3ccccc3)cc2)[C@@H]1O` (stereo partly shown) [Compound 5] was run?
Its value is “+ (Indicates inhibition greater than . . . 50%)”.

Which “MC4 inhibition at 10 micromolar” value does the source give for `COC[C@H]1OC(OCCc2ccccc2)[C@H](NC(=O)CNC(=N)N)[C@@H](OCc2ccc(-c3ccccc3)cc2)[C@@H]1O` (stereo partly shown) [Compound 19] here?
Its value is “+ (Indicates inhibition greater than . . . 50%)”.

`COC[C@H]1OC(OCCc2ccccc2)[C@H](NC(=O)CCNC(=N)N)[C@@H](OCc2ccc(-c3ccccc3)cc2)[C@@H]1O` (stereo partly shown) [Compound 20] was tested. Which “MC4 inhibition at 10 micromolar” value did it give?
Its value is “+ (Indicates inhibition greater than . . . 50%)”.

How did the “MC4 inhibition at 10 micromolar” value turn out when `CO[C@H]1[C@H](O)[C@@H](COCc2ccc(-c3ccccc3)cc2)OC(OCc2ccc(-c3ccccc3)cc2)[C@@H]1NC(=O)CCCNC(=N)N` (stereo partly shown) [Compound 58] was run?
Its value is “+ (Indicates inhibition greater than . . . 50%)”.

With `CO[C@H]1[C@H](O)[C@@H](COCc2ccc3ccccc3c2)OC(OCc2ccc(-c3ccccc3)cc2)[C@@H]1NC(=O)CNC(=N)N` (stereo partly shown) [Compound 59] as the molecule, how does the “MC4 inhibition at 10 micromolar” value read?
Its value is “+ (Indicates inhibition greater than . . . 50%)”.

For `COC1C(O)C(COCc2ccc3ccccc3c2)OC(OCc2ccc(-c3ccccc3)cc2)C1NC(=O)CCCNC(=N)N` (stereo not shown) [Compound 62], which “MC4 inhibition at 10 micromolar” value is on record?
The value was “+ (Indicates inhibition greater than . . . 50%)”.

For `COC1C(O)C(COCc2ccc(Cl)cc2)OC(OCc2ccc(-c3ccccc3)cc2)C1NC(=O)CNC(=N)N` (stereo not shown) [Compound 63], which “MC4 inhibition at 10 micromolar” value is on record?
Its value is “+ (Indicates inhibition greater than . . . 50%)”.

For `COC1C(O)C(COCc2ccc(Cl)cc2)OC(OCc2ccc(-c3ccccc3)cc2)C1NC(=O)CCNC(=N)N` (stereo not shown) [Compound 64], which “MC4 inhibition at 10 micromolar” value is on record?
Its value is “+ (Indicates inhibition greater than . . . 50%)”.

How did the “MC4 inhibition at 10 micromolar” value turn out when `COC1C(O)C(COCc2ccc(Cl)cc2)OC(OCc2ccc(-c3ccccc3)cc2)C1NC(=O)CCCN` (stereo not shown) [Compound 65] was run?
The value was “+ (Indicates inhibition greater than . . . 50%)”.

`COC1C(O)C(COCc2ccc(Cl)cc2)OC(OCc2ccc(-c3ccccc3)cc2)C1NC(=O)CCCNC(=N)N` (stereo not shown) [Compound 66] was tested. Which “MC4 inhibition at 10 micromolar” value did it give?
The value was “+ (Indicates inhibition greater than . . . 50%)”.

How did the “MC4 inhibition at 10 micromolar” value turn out when `COC1C(O)C(COCc2ccc(-c3ccccc3)cc2)OC(OCc2ccc3ccccc3c2)C1NC(=O)CNC(=N)N` (stereo not shown) [Compound 67] was run?
Its value is “+ (Indicates inhibition greater than . . . 50%)”.

How did the “MC4 inhibition at 10 micromolar” value turn out when `COC1C(O)C(COCc2ccc(-c3ccccc3)cc2)OC(OCc2ccc3ccccc3c2)C1NC(=O)CCNC(=N)N` (stereo not shown) [Compound 68] was run?
The value was “+ (Indicates inhibition greater than . . . 50%)”.

How did the “MC4 inhibition at 10 micromolar” value turn out when `COC1C(O)C(COCc2ccc(-c3ccccc3)cc2)OC(OCc2ccc3ccccc3c2)C1NC(=O)CCCNC(=N)N` (stereo not shown) [Compound 70] was run?
The value was “+ (Indicates inhibition greater than . . . 50%)”.

`COC1C(O)C(COCc2ccc3ccccc3c2)OC(OCc2ccc3ccccc3c2)C1NC(=O)CNC(=N)N` (stereo not shown) [Compound 71] was tested. Which “MC4 inhibition at 10 micromolar” value did it give?
Its value is “+ (Indicates inhibition greater than . . . 50%)”.

With `COC1C(O)C(COCc2ccc3ccccc3c2)OC(OCc2ccc3ccccc3c2)C1NC(=O)CCNC(=N)N` (stereo not shown) [Compound 72] as the molecule, how does the “MC4 inhibition at 10 micromolar” value read?
The value was “+ (Indicates inhibition greater than . . . 50%)”.
